Measurements: patent publication US10111890B2, “9-aminomethyl minocycline compounds and uses thereof” (Paratek Pharmaceuticals, Inc., priority 2016, dated 2018)

Experiments:
[1] = system: ABSSSI known or suspected to be due to Gram-positive pathogens; experiment: Phase 3 oral omadacycline vs oral linezolid in ABSSSI: Investigator's Assessment of Clinical Response at PTE; type: in vivo, human; settings: for Overall Clinical Success at PTE, %: micro-mITT, % of N1
[2] = human, in vivo
[3] = system: ABSSSI known or suspected to be due to Gram-positive pathogens; experiment: Phase 3 oral omadacycline vs oral linezolid in ABSSSI: Early Clinical Response 48-72 hours after first dose; type: in vivo, human; settings: for Early Clinical Success, %: micro-mITT, % of N1
ABSSSI = experiment: Earlier Phase 3 i.v.-to-oral omadacycline vs linezolid study in ABSSSI: clinical success; type: in vivo, human; settings: i.v. with switch to oral
[4] = Cellulitis/erysipelas, actual type, mITT
[5] = Cellulitis/erysipelas, as randomized, mITT
[6] = Major Abscess, actual type, mITT
[7] = Major Abscess, as randomized, mITT
[8] = Wound Infection, actual type, mITT
[9] = Wound Infection, as randomized, mITT
[10] = 48-72 hours after first dose, mITT population
[11] = Cellulitis/erysipelas, actual type, 48-72 hours, mITT
[12] = Cellulitis/erysipelas, as randomized, 48-72 hours, mITT
[13] = Major Abscess, actual type, 48-72 hours, mITT
[14] = Major Abscess, as randomized, 48-72 hours, mITT
[15] = Wound Infection, actual type, 48-72 hours, mITT
[16] = Wound Infection, as randomized, 48-72 hours, mITT

## CC(=O)NCC1CN(c2ccc(N3CCOCC3)c(F)c2)C(=O)O1 (stereo not drawn) [Linezolid, N-[[3-(3-fluoro-4-morpholinophenyl)-2-oxooxazolidin-5-yl]methyl]acetamide, reference compound]
[1]; Cellulitis/erysipelas, actual type of infection, investigator assessment, mITT
  Overall clinical response at PTE: Clinical Success: 78 (92.9) n (%)
[1]; [4]
  Overall clinical response at PTE: Clinical Failure: 1 (1.2) n (%)
  Overall clinical response at PTE: Clinical Failure or Indeterminate: 6 (7.1) n (%)
  Overall clinical response at PTE: Indeterminate: 5 (6.0) n (%)
[1]; [5]
  Overall clinical response at PTE: Clinical Failure: 1 (1.2) n (%)
  Overall clinical response at PTE: Clinical Failure or Indeterminate: 6 (7.1) n (%)
  Overall clinical response at PTE: Indeterminate: 5 (6.0) n (%)
[1]; Cellulitis/erysipelas, type of infection as randomized, investigator assessment, mITT
  Overall clinical response at PTE: Clinical Success: 78 (92.9) n (%)
[1]; Major Abscess, actual type of infection, investigator assessment, mITT
  Overall clinical response at PTE: Clinical Success: 49 (79.0) n (%)
[1]; [6]
  Overall clinical response at PTE: Clinical Failure: 3 (4.8) n (%)
  Overall clinical response at PTE: Clinical Failure or Indeterminate: 13 (21.0) n (%)
  Overall clinical response at PTE: Indeterminate: 10 (16.1) n (%)
[1]; [7]
  Overall clinical response at PTE: Clinical Failure: 3 (4.8) n (%)
  Overall clinical response at PTE: Clinical Failure or Indeterminate: 13 (21.0) n (%)
  Overall clinical response at PTE: Indeterminate: 10 (16.1) n (%)
[1]; Major Abscess, type of infection as randomized, investigator assessment, mITT
  Overall clinical response at PTE: Clinical Success: 49 (79.0) n (%)
[1]; Wound Infection, actual type of infection, investigator assessment, mITT
  Overall clinical response at PTE: Clinical Success: 164 (76.6) n (%)
[1]; [8]
  Overall clinical response at PTE: Clinical Failure: 17 (7.9) n (%)
  Overall clinical response at PTE: Clinical Failure or Indeterminate: 50 (23.4) n (%)
  Overall clinical response at PTE: Indeterminate: 33 (15.4) n (%)
[1]; [9]
  Overall clinical response at PTE: Clinical Failure: 17 (7.9) n (%)
  Overall clinical response at PTE: Clinical Failure or Indeterminate: 50 (23.4) n (%)
  Overall clinical response at PTE: Indeterminate: 33 (15.4) n (%)
[1]; Wound Infection, type of infection as randomized, investigator assessment, mITT
  Overall clinical response at PTE: Clinical Success: 164 (76.6) n (%)
[1]; baseline pathogen Clostridium perfringens, investigator assessment
  Overall Clinical Success at PTE, %: (77.8) %
[1]; baseline pathogen Enterobacter cloacae, investigator assessment
  Overall Clinical Success at PTE, %: (100.0) %
[1]; baseline pathogen Enterococcus faecalis VRE, investigator assessment
  Overall Clinical Success at PTE, %: (100.0) %
[1]; baseline pathogen Enterococcus faecalis VSE, investigator assessment
  Overall Clinical Success at PTE, %: (70.0) %
[1]; baseline pathogen Enterococcus faecalis, investigator assessment
  Overall Clinical Success at PTE, %: (75.0) %
[1]; baseline pathogen Enterococcus faecium VSE, investigator assessment
  Overall Clinical Success at PTE, %: (100.0) %
[1]; baseline pathogen Enterococcus faecium, investigator assessment
  Overall Clinical Success at PTE, %: (100.0) %
[1]; baseline pathogen Escherichia coli, investigator assessment
  Overall Clinical Success at PTE, %: (100.0) %
[1]; baseline pathogen Finegoldia magna, investigator assessment
  Overall Clinical Success at PTE, %: (0.0) %
[1]; baseline pathogen Klebsiella pneumoniae, investigator assessment
  Overall Clinical Success at PTE, %: (66.7) %
[1]; baseline pathogen MRSA, investigator assessment
  Overall Clinical Success at PTE, %: (79.4) %
[1]; baseline pathogen MSSA, investigator assessment
  Overall Clinical Success at PTE, %: (79.2) %
[1]; baseline pathogen Prevotella denticola, investigator assessment
  Overall Clinical Success at PTE, %: (0.0) %
[1]; baseline pathogen Prevotella melaninogenica, investigator assessment
  Overall Clinical Success at PTE, %: (100.0) %
[1]; baseline pathogen Staphylococcus aureus, investigator assessment
  Overall Clinical Success at PTE, %: (79.8) %
[1]; baseline pathogen Streptococcus agalactiae, investigator assessment
  Overall Clinical Success at PTE, %: (50.0) %
[1]; baseline pathogen Streptococcus anginosus group, investigator assessment
  Overall Clinical Success at PTE, %: (73.3) %
[1]; baseline pathogen Streptococcus anginosus, investigator assessment
  Overall Clinical Success at PTE, %: (80.0) %
[1]; baseline pathogen Streptococcus constellatus, investigator assessment
  Overall Clinical Success at PTE, %: (71.4) %
[1]; baseline pathogen Streptococcus intermedius, investigator assessment
  Overall Clinical Success at PTE, %: (66.7) %
[1]; baseline pathogen Streptococcus pyogenes, investigator assessment
  Overall Clinical Success at PTE, %: (56.3) %
[1]; investigator assessment, CE-PTE
  Overall clinical response at PTE: Clinical Failure: 13 (4.5) n (%)
[1]; investigator assessment, CE-PTE (N = 284 / N = 292)
  Overall clinical response at PTE: Clinical Success: 279 (95.5) n (%)
[1]; investigator assessment, mITT
  Overall clinical response at PTE: Clinical Failure: 21 (5.8) n (%)
  Overall clinical response at PTE: Clinical Failure or Indeterminate: 69 (19.2) n (%)
  Overall clinical response at PTE: Indeterminate: 48 (13.3) n (%)
[1]; investigator assessment, mITT (N = 360 per arm)
  Overall clinical response at PTE: Clinical Success: 291 (80.8) n (%)
[2]
  discontinuation due to TEAE, % of subjects: 2.2%
  serious TEAEs, % of subjects: 2.5%
  treatment-emergent adverse events (TEAEs), % of subjects: 45.7%
[3]; [10]
  Early Clinical Response: Clinical Failure: 32 (8.9) n (%)
  Early Clinical Response: Clinical Failure or Indeterminate: 63 (17.5) n (%)
  Early Clinical Response: Indeterminate: 31 (8.6) n (%)
[3]; 48-72 hours after first dose, mITT population (N = 360 per arm)
  Early Clinical Response: Clinical Success: 297 (82.5) n (%)
[3]; Cellulitis/erysipelas, actual type of infection, 48-72 hours, mITT
  Early Clinical Response: Clinical Success: 65 (77.4) n (%)
[3]; [11]
  Early Clinical Response: Clinical Failure: 12 (14.3) n (%)
  Early Clinical Response: Clinical Failure or Indeterminate: 19 (22.6) n (%)
  Early Clinical Response: Indeterminate: 7 (8.3) n (%)
[3]; [12]
  Early Clinical Response: Clinical Failure: 12 (14.3) n (%)
  Early Clinical Response: Clinical Failure or Indeterminate: 19 (22.6) n (%)
  Early Clinical Response: Indeterminate: 7 (8.3) n (%)
[3]; Cellulitis/erysipelas, type of infection as randomized, 48-72 hours, mITT
  Early Clinical Response: Clinical Success: 65 (77.4) n (%)
[3]; Major Abscess, actual type of infection, 48-72 hours, mITT
  Early Clinical Response: Clinical Success: 55 (88.7) n (%)
[3]; [13]
  Early Clinical Response: Clinical Failure: 4 (6.5) n (%)
  Early Clinical Response: Clinical Failure or Indeterminate: 7 (11.3) n (%)
  Early Clinical Response: Indeterminate: 3 (4.8) n (%)
[3]; [14]
  Early Clinical Response: Clinical Failure: 4 (6.5) n (%)
  Early Clinical Response: Clinical Failure or Indeterminate: 7 (11.3) n (%)
  Early Clinical Response: Indeterminate: 3 (4.8) n (%)
[3]; Major Abscess, type of infection as randomized, 48-72 hours, mITT
  Early Clinical Response: Clinical Success: 55 (88.7) n (%)
[3]; Wound Infection, actual type of infection, 48-72 hours, mITT
  Early Clinical Response: Clinical Success: 177 (82.7) n (%)
[3]; [15]
  Early Clinical Response: Clinical Failure: 16 (7.5) n (%)
  Early Clinical Response: Clinical Failure or Indeterminate: 37 (17.3) n (%)
  Early Clinical Response: Indeterminate: 21 (9.8) n (%)
[3]; [16]
  Early Clinical Response: Clinical Failure: 16 (7.5) n (%)
  Early Clinical Response: Clinical Failure or Indeterminate: 37 (17.3) n (%)
  Early Clinical Response: Indeterminate: 21 (9.8) n (%)
[3]; Wound Infection, type of infection as randomized, 48-72 hours, mITT
  Early Clinical Response: Clinical Success: 177 (82.7) n (%)
[3]; baseline pathogen Clostridium perfringens, 48-72 hours after first dose
  Early Clinical Success, %: (100.0) %
[3]; baseline pathogen Enterobacter cloacae, 48-72 hours after first dose
  Early Clinical Success, %: (83.3) %
[3]; baseline pathogen Enterococcus faecalis VRE, 48-72 hours after first dose
  Early Clinical Success, %: (100.0) %
[3]; baseline pathogen Enterococcus faecalis VSE, 48-72 hours after first dose
  Early Clinical Success, %: (60.0) %
[3]; baseline pathogen Enterococcus faecalis, 48-72 hours after first dose
  Early Clinical Success, %: (66.7) %
[3]; baseline pathogen Enterococcus faecium VSE, 48-72 hours after first dose
  Early Clinical Success, %: (100.0) %
[3]; baseline pathogen Enterococcus faecium, 48-72 hours after first dose
  Early Clinical Success, %: (100.0) %
[3]; baseline pathogen Escherichia coli, 48-72 hours after first dose
  Early Clinical Success, %: (100.0) %
[3]; baseline pathogen Finegoldia magna, 48-72 hours after first dose
  Early Clinical Success, %: (0.0) %
[3]; baseline pathogen Klebsiella pneumoniae, 48-72 hours after first dose
  Early Clinical Success, %: (83.3) %
[3]; baseline pathogen MRSA, 48-72 hours after first dose
  Early Clinical Success, %: (88.8) %
[3]; baseline pathogen MSSA, 48-72 hours after first dose
  Early Clinical Success, %: (79.2) %
[3]; baseline pathogen Prevotella denticola, 48-72 hours after first dose
  Early Clinical Success, %: (100.0) %
[3]; baseline pathogen Prevotella melaninogenica, 48-72 hours after first dose
  Early Clinical Success, %: (100.0) %
[3]; baseline pathogen Staphylococcus aureus, 48-72 hours after first dose
  Early Clinical Success, %: (83.3) %
[3]; baseline pathogen Streptococcus agalactiae, 48-72 hours after first dose
  Early Clinical Success, %: (50.0) %
[3]; baseline pathogen Streptococcus anginosus group, 48-72 hours after first dose
  Early Clinical Success, %: (80.0) %
[3]; baseline pathogen Streptococcus anginosus, 48-72 hours after first dose
  Early Clinical Success, %: (85.0) %
[3]; baseline pathogen Streptococcus constellatus, 48-72 hours after first dose
  Early Clinical Success, %: (100.0) %
[3]; baseline pathogen Streptococcus intermedius, 48-72 hours after first dose
  Early Clinical Success, %: (75.0) %
[3]; baseline pathogen Streptococcus pyogenes, 48-72 hours after first dose
  Early Clinical Success, %: (81.3) %
ABSSSI; 7-14 days after the last dose
  clinical success based on investigator's assessment of clinical response: 83.6%
ABSSSI; 48-72 hours after the first dose, FDA primary analysis population (N=627)
  clinical success based on a reduction of lesion size: 85.5%
